Laboratory results published in the supplement of paper PMC10307832.

Key:
Assay in all cases: relative viability (nuclei count vs DMSO), 5 days (fraction); higher = more cells survive
Calu-6 = test system: Calu-6
In short: (§1)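 Dosing by pin tool came one day after lung cancer cell lines were seeded in 1536-well plates, using either one drug or a fixed anchor-drug dose plus five library-drug doses (not always all listed) in √10 steps. After 5 days, nuclei were counted on 4× images. Relative viability is treated-well nuclei count divided by vehicle-well nuclei count, and values are medians of duplicate plates.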

NCI-H596 = test system: NCI-H596
In short: as §1

A549 = test system: A549
In short: as §1

NCI-H23 = test system: NCI-H23
In short: as §1

IA-LM = test system: IA-LM
In short: as §1

NCI-H1299 = test system: NCI-H1299
In short: as §1

EBC-1 = test system: EBC-1
In short: as §1

NCI-H1703 = test system: NCI-H1703
In short: as §1

NCI-H1993 = test system: NCI-H1993
In short: as §1

`Oc1nc(-c2ccc(C(F)(F)F)cc2)nc2c1CSCC2` [XAV939] + CS(=O)(=O)N1CCN(Cc2cc3nc(-c4cccc5[nH]ncc45)nc(N4CCOCC4)c3s2)CC1 [Pictilisib] (partner 1 µM) was tested, and the relative viability (Calu-6; first compound 0.08 µM) was 1.09, the relative viability (Calu-6; first compound 0.253 µM) was 0.843 and the relative viability (Calu-6; first compound 0.8 µM) was 0.972. For the same compound, the relative viability (Calu-6; first compound 2.53 µM) was 0.841, the relative viability (NCI-H596; first compound 0.08 µM) was 0.427 and the relative viability (NCI-H596; first compound 0.253 µM) was 0.384. The relative viability (NCI-H596; first compound 0.8 µM) was 0.422, the relative viability (NCI-H596; first compound 2.53 µM) was 0.4 and the relative viability (A549; first compound 0.08 µM) was 0.629. It also gave a relative viability (A549; first compound 0.253 µM) of 0.491, a relative viability (A549; first compound 0.8 µM) of 0.372 and a relative viability (A549; first compound 2.53 µM) of 0.296. The relative viability (NCI-H23; first compound 0.08 µM) was 0.46, the relative viability (NCI-H23; first compound 0.253 µM) was 0.351 and the relative viability (NCI-H23; first compound 0.8 µM) was 0.33. For the same compound, the relative viability (NCI-H23; first compound 2.53 µM) was 0.33, the relative viability (IA-LM; first compound 0.08 µM) was 0.449 and the relative viability (IA-LM; first compound 0.253 µM) was 0.317. It also gave a relative viability (IA-LM; first compound 0.8 µM) of 0.245, a relative viability (IA-LM; first compound 2.53 µM) of 0.17 and a relative viability (NCI-H1299; first compound 0.08 µM) of 0.857. The relative viability (NCI-H1299; first compound 0.253 µM) was 0.701, the relative viability (NCI-H1299; first compound 0.8 µM) was 0.642 and the relative viability (NCI-H1299; first compound 2.53 µM) was 0.511. The relative viability (EBC-1; first compound 0.08 µM) was 0.437, the relative viability (EBC-1; first compound 0.253 µM) was 0.346 and the relative viability (EBC-1; first compound 0.8 µM) was 0.329. It also gave a relative viability (EBC-1; first compound 2.53 µM) of 0.261, a relative viability (NCI-H1703; first compound 0.08 µM) of 0.275 and a relative viability (NCI-H1703; first compound 0.253 µM) of 0.243. It also gave a relative viability (NCI-H1703; first compound 0.8 µM) of 0.258, a relative viability (NCI-H1703; first compound 2.53 µM) of 0.241 and a relative viability (NCI-H1993; first compound 0.8 µM) of 0.911. The relative viability (NCI-H1993; first compound 2.53 µM) was 0.7.

In the case of `Oc1nc(-c2ccc(C(F)(F)F)cc2)nc2c1CSCC2` [XAV939] + Cc1nc(NC(=O)N2CCC[C@H]2C(N)=O)sc1-c1ccnc(C(C)(C)C(F)(F)F)c1 [Alpelisib] (partner 2 µM), the relative viability (Calu-6; first compound 0.08 µM) is reported as 1.08, the relative viability (Calu-6; first compound 0.253 µM) is reported as 0.887 and the relative viability (Calu-6; first compound 0.8 µM) is reported as 0.919. For the same compound, the relative viability (Calu-6; first compound 2.53 µM) was 0.948, the relative viability (NCI-H596; first compound 0.08 µM) was 0.456 and the relative viability (NCI-H596; first compound 0.253 µM) was 0.587. For the same compound, the relative viability (NCI-H596; first compound 0.8 µM) was 0.534, the relative viability (NCI-H596; first compound 2.53 µM) was 0.493 and the relative viability (A549; first compound 0.08 µM) was 0.877. It also gave a relative viability (A549; first compound 0.253 µM) of 0.371, a relative viability (A549; first compound 0.8 µM) of 0.484 and a relative viability (A549; first compound 2.53 µM) of 0.524. For the same compound, the relative viability (NCI-H23; first compound 0.08 µM) was 0.663, the relative viability (NCI-H23; first compound 0.253 µM) was 0.659 and the relative viability (NCI-H23; first compound 0.8 µM) was 0.627. For the same compound, the relative viability (NCI-H23; first compound 2.53 µM) was 0.456, the relative viability (IA-LM; first compound 0.08 µM) was 0.77 and the relative viability (IA-LM; first compound 0.253 µM) was 0.693. For the same compound, the relative viability (IA-LM; first compound 0.8 µM) was 0.705, the relative viability (IA-LM; first compound 2.53 µM) was 0.557 and the relative viability (NCI-H1299; first compound 0.08 µM) was 1.08. For the same compound, the relative viability (NCI-H1299; first compound 0.253 µM) was 1.04, the relative viability (NCI-H1299; first compound 0.8 µM) was 1.09 and the relative viability (NCI-H1299; first compound 2.53 µM) was 1.11. For the same compound, the relative viability (EBC-1; first compound 0.08 µM) was 0.874, the relative viability (EBC-1; first compound 0.253 µM) was 0.71 and the relative viability (EBC-1; first compound 0.8 µM) was 0.716. The relative viability (EBC-1; first compound 2.53 µM) was 0.726, the relative viability (NCI-H1703; first compound 0.08 µM) was 0.397 and the relative viability (NCI-H1703; first compound 0.253 µM) was 0.301. The relative viability (NCI-H1703; first compound 0.8 µM) was 0.307, the relative viability (NCI-H1703; first compound 2.53 µM) was 0.324 and the relative viability (NCI-H1993; first compound 0.8 µM) was 0.635. It also gave a relative viability (NCI-H1993; first compound 2.53 µM) of 0.633.

For `CC1(C)CCC(c2ccc(Cl)cc2)=C(CN2CCN(c3ccc(C(=O)NS(=O)(=O)c4ccc(N[C@H](CCN5CCOCC5)CSc5ccccc5)c(S(=O)(=O)C(F)(F)F)c4)cc3)CC2)C1` [Navitoclax] + C[C@@H](Oc1cc(-c2cnn(C3CCNCC3)c2)cnc1N)c1c(Cl)ccc(F)c1Cl [Crizotinib] (partner 1 µM), the relative viability (Calu-6; first compound 0.005 µM) was 0.843, the relative viability (Calu-6; first compound 0.01581 µM) was 0.812 and the relative viability (Calu-6; first compound 0.05 µM) was 0.894. It also gave a relative viability (Calu-6; first compound 0.1581 µM) of 0.741, a relative viability (Calu-6; first compound 0.5 µM) of 0.78 and a relative viability (NCI-H596; first compound 0.005 µM) of 1.02. The relative viability (NCI-H596; first compound 0.01581 µM) was 0.985, the relative viability (NCI-H596; first compound 0.05 µM) was 0.802 and the relative viability (NCI-H596; first compound 0.1581 µM) was 1.02. For the same compound, the relative viability (NCI-H596; first compound 0.5 µM) was 1.01, the relative viability (A549; first compound 0.005 µM) was 0.756 and the relative viability (A549; first compound 0.01581 µM) was 0.805. For the same compound, the relative viability (A549; first compound 0.05 µM) was 0.825, the relative viability (A549; first compound 0.1581 µM) was 0.729 and the relative viability (A549; first compound 0.5 µM) was 0.744. The relative viability (NCI-H23; first compound 0.005 µM) was 0.519, the relative viability (NCI-H23; first compound 0.01581 µM) was 0.494 and the relative viability (NCI-H23; first compound 0.05 µM) was 0.516. The relative viability (NCI-H23; first compound 0.1581 µM) was 0.516, the relative viability (NCI-H23; first compound 0.5 µM) was 0.545 and the relative viability (IA-LM; first compound 0.005 µM) was 0.861. For the same compound, the relative viability (IA-LM; first compound 0.01581 µM) was 0.636, the relative viability (IA-LM; first compound 0.05 µM) was 0.875 and the relative viability (IA-LM; first compound 0.1581 µM) was 0.944. The relative viability (IA-LM; first compound 0.5 µM) was 0.908, the relative viability (NCI-H1299; first compound 0.005 µM) was 0.99 and the relative viability (NCI-H1299; first compound 0.01581 µM) was 0.99. For the same compound, the relative viability (NCI-H1299; first compound 0.05 µM) was 1.02, the relative viability (NCI-H1299; first compound 0.1581 µM) was 0.926 and the relative viability (NCI-H1299; first compound 0.5 µM) was 0.981. For the same compound, the relative viability (EBC-1; first compound 0.005 µM) was 0.178, the relative viability (EBC-1; first compound 0.01581 µM) was 0.227 and the relative viability (EBC-1; first compound 0.05 µM) was 0.192. For the same compound, the relative viability (EBC-1; first compound 0.1581 µM) was 0.195, the relative viability (EBC-1; first compound 0.5 µM) was 0.204 and the relative viability (NCI-H1703; first compound 0.005 µM) was 0.73. It also gave a relative viability (NCI-H1703; first compound 0.01581 µM) of 0.602, a relative viability (NCI-H1703; first compound 0.05 µM) of 1.22 and a relative viability (NCI-H1703; first compound 0.1581 µM) of 0.726. The relative viability (NCI-H1703; first compound 0.5 µM) was 0.754, the relative viability (NCI-H1993; first compound 0.005 µM) was 0.89 and the relative viability (NCI-H1993; first compound 0.01581 µM) was 1. It also gave a relative viability (NCI-H1993; first compound 0.05 µM) of 0.848, a relative viability (NCI-H1993; first compound 0.1581 µM) of 0.853 and a relative viability (NCI-H1993; first compound 0.5 µM) of 0.866.
